Results on 45 compounds are retold here after ChEMBL document CHEMBL1144475, “Design, synthesis, and evaluation of inhibitors for severe acute respiratory syndrome 3C-like protease based on phthalhydrazide ketones or heteroaromatic esters” (J Med Chem, 2007).

Assay [1] concerns the target Replicase polyprotein 1a (Severe acute respiratory syndrome-related coronavirus) (UniProt P0C6U8). Nature of the assay: Inhibition of SARS coronavirus His-3C-like protease at 100 uM.
Another assay addresses Replicase polyprotein 1a (Severe acute respiratory syndrome-related coronavirus, UniProt P0C6U8). Nature of the assay: Inhibition of SARS coronavirus 3C-like protease.
Assay [2] concerns the target Replicase polyprotein 1a (Severe acute respiratory syndrome-related coronavirus) (UniProt P0C6U8). Nature of the assay: Inhibition of SARS coronavirus 3C-like protease at 1 uM.

pIC50: −log10 of the molar value. Non-standard residues stand in square brackets, D forms with d. Residues, ends and D or L forms follow the SMILES beside them. *: point of attachment. Ala(2-oxopyrrolidin-3S-yl) = N[C@@H](C[C@@H]1CCNC1=O)C(=O)O; X1 = Clc1cncc(O*)c1; Bn = c1ccc(C*)cc1 A value given as a limit tells only on which side of the number the result lay.

As for `O=Cc1ccco1`, the inhibition (usually the change of the read-out against control, counted positive when it falls) in assay [1] came out at 23%. The same measure, in the same setting: next, `O=Cc1cccs1`: less than 10%.

The compound `O=C(Nc1cccnc1Cl)c1cccs1` returned an inhibition in assay [1] of less than 10%. `O=C(Oc1cncc(Cl)c1)c1ccco1`: on Replicase polyprotein 1a, the pIC50 (as a rule, the IC50 on a negative log10 scale, so that one unit is a factor of ten) is 7.22. Also, in assay [1], the inhibition amounted to 99%. In the case of `O=C(Oc1ccccn1)c1cccs1`, the inhibition in assay [1] is 13%. On to `O=C(Oc1cncc(Br)c1)c1ccco1`, for which the values for the inhibition in assay [2] and in assay [1] were 98% and 99%, respectively. In addition, on Replicase polyprotein 1a, the pIC50 was 7.30. With `O=C(Oc1cccc(Cl)n1)c1cccs1`, the inhibition in assay [1] is less than 10%. The same measure, in the same setting: next, `O=C(Nc1cccnc1)c1cccs1`: 13%; `O=C(Oc1cccc(Cl)c1)c1ccco1`: 40%; `CC(=O)N[C@H](C(=O)N[C@H](C(=O)N[C@@H](CC(C)C)C(=O)N[C@@H](C[C@@H]1CCNC1=O)C(=O)Oc1cncc(Cl)c1)[C@@H](C)OCc1ccccc1)C(C)C` (Ac-VT(Bn)L[Ala(2-oxopyrrolidin-3S-yl)]-X1): less than 10%.

As for `Cc1cccc(OC(=O)c2cccs2)n1`, the inhibition in assay [1] amounted to 38%.

On to `O=C(OCc1cncc(Br)c1)c1ccco1`, for which the inhibition in assay [1] was 90%. For `O=C(Oc1cncc(Cl)c1)c1ccc(-c2ccc(Cl)cc2)o1`, in assay [2], the inhibition turned out to be 98%. At Replicase polyprotein 1a, the pIC50 was 7.20.

For the compound `O=C(Nc1ccncc1)c1cccs1`, in assay [1], the inhibition was less than 10%. In turn, `O=C(Oc1cncc(Cl)c1)c1cscn1` registered an inhibition in assay [2] of 98%. Also, the pIC50 against Replicase polyprotein 1a is 6.57.

`Cc1ncccc1OC(=O)c1cccs1` displayed an inhibition in assay [1] of less than 10%. Still for that read-out and setting: next, `O=Cc1cc2ccccc2[nH]1`: 39%; `O=C(OCc1cccnc1)c1cccs1`: 19%. In assay [1], `O=C(Nc1ccc(F)cn1)c1cccs1` displayed an inhibition of less than 10%. In turn, `O=C(Oc1cncc(Cl)c1)c1cc2ccccc2s1` had an inhibition in assay [2] of 96%. On Replicase polyprotein 1a, the pIC50 is 7.02. `O=C(Oc1cncc(Cl)c1)c1cc2ccccc2o1` gave a pIC50 at Replicase polyprotein 1a of 6.77. The inhibition in assay [1] is 94%. Regarding `CC(=O)N[C@H](C(=O)N[C@H](C(=O)N[C@@H](CC(C)C)C(=O)N[C@@H](C[C@@H]1CCNC1=O)C(=O)c1cccs1)[C@@H](C)OCc1ccccc1)C(C)C`, the inhibition in assay [1] is less than 10%. Still for that read-out and setting: next, `O=C(Oc1cncc(Cl)c1)c1ccoc1`: 89%. In assay [1], `CC(=O)N[C@H](C(=O)N[C@H](C(=O)N[C@@H](CC(C)C)C(=O)N[C@@H](C[C@@H]1CCNC1=O)C(=O)c1cccs1)[C@@H](C)O)C(C)C` registered an inhibition of 23%.

The compound `O=C(Cc1cncc(Br)c1)c1ccco1` registered an inhibition in assay [1] of less than 10%. The compound `O=C(Oc1cncc(Cl)c1)c1ccccc1` gave an inhibition in assay [1] of 92%. Same read-out and setting: next, `CC(=O)N[C@H](C(=O)N[C@H](C(=O)N[C@@H](CC(C)C)C(=O)N[C@@H](Cc1ccccc1)C(=O)Cn1[nH]c(=O)c2ccccc2c1=O)[C@@H](C)OCc1ccccc1)C(C)C`: 72%; `O=Cc1cscn1`: 36%; `O=C(Nc1ccc(Cl)cn1)c1cccs1`: less than 10%. The compound `O=C(Oc1ccco1)c1cccnc1` yielded an inhibition in assay [1] of 80%. The same measure, in the same setting: next, `O=C(Nc1ccccn1)c1cccs1`: less than 10%.

As to `O=C(Oc1cncc(Cl)c1)c1cc2ccccc2[nH]1`, in assay [2], the inhibition was 99%. The compound further had a pIC50 at Replicase polyprotein 1a of 7.19. Take `Clc1cncc(OCc2ccco2)c1`: the inhibition in assay [1] worked out at 11%. Same read-out and setting: next, `O=C(Cc1cccnc1)c1cccs1`: less than 10%. Still for that read-out and setting: next, `Cc1ccc(OC(=O)c2cccs2)cn1`: less than 10%; `O=Cc1ccc(-c2ccc(Cl)cc2)o1`: 70%. The same measure, in the same setting: next, `O=C(Oc1ccc(Cl)nc1)c1cccs1`: 13%.

In the case of `O=S(=O)(Nc1cccnc1)c1cccs1`, in assay [1], the inhibition is less than 10%.

The compound `COc1cccc(C(=O)Oc2cncc(Cl)c2)c1` registered an inhibition in assay [2] of 97%.

For the compound `Cc1ccc(OC(=O)c2cccs2)c([N+](=O)[O-])n1`, the inhibition in assay [1] was 15%. On the same count and under the same terms, next, `Cc1ccc(OC(=O)c2cccs2)nc1`: less than 10%; `O=C(Oc1cncc(Cl)c1)c1ccc[nH]1`: 65%. Still for that read-out and setting: next, `O=C(Oc1ccncc1)c1cccs1`: less than 10%; `O=C(Oc1cccnc1Cl)c1cccs1`: 20%.

Turning to `O=C(Oc1cccnc1)c1cccs1`, the inhibition in assay [1] turned out to be 91%.
